# Laboratory results reported in ChEMBL document CHEMBL1201862, “PubChem BioAssay data set” (2004).
#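 These data come from cells grown in 96-well plates and exposed to compound for 48 hours at five concentrations. Here, GI50 denotes the concentration required for 50% inhibition of growth.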 The source made the active and inactive calls. No stated cut-off is given here; in the data, active = GI50 up to about 1.1 µM and inactive = higher.
# What was measured:
# Assay in all cases: NCI-60 cell line screen, 48 h
# [1] = system: A498
# [2] = system: A549
# [3] = system: EKVX
# [4] = system: HL-60
# [5] = system: K562
# [6] = system: LOX IMVI
# [7] = system: MCF7
# [8] = system: MDA-MB-231
# [9] = system: NCI-H226
# [10] = system: OVCAR-3
# [11] = system: OVCAR-4
# [12] = system: SF-268
# [13] = system: SF-295
# [14] = system: SF-539
# [15] = system: SK-OV-3
# [16] = system: SNB-19
# [17] = system: SNB-75
# [18] = system: T47D
# [19] = system: UACC-257
# [20] = system: UO-31
SMILES,GI50 [1],GI50 [2],GI50 [3],GI50 [4],GI50 [5],GI50 [6],GI50 [7],GI50 [8],GI50 [9],GI50 [10],GI50 [11],GI50 [12],GI50 [13],GI50 [14],GI50 [15],GI50 [16],GI50 [17],GI50 [18],GI50 [19],GI50 [20]
[N-]=[N+]=NCC(=O)c1cnc(O)nc1O,> 100 µM (inactive),> 100 µM (inactive),> 100 µM (inactive),> 100 µM (inactive),> 100 µM (inactive),> 100 µM (inactive),> 100 µM (inactive),> 100 µM (inactive),> 100 µM (inactive),> 100 µM (inactive),> 100 µM (inactive),> 100 µM (inactive),> 100 µM (inactive),> 100 µM (inactive),> 100 µM (inactive),> 100 µM (inactive),> 100 µM (inactive),> 100 µM (inactive),> 100 µM (inactive),> 100 µM (inactive)
O=C1/C(=C/c2ccccc2)CCc2ccc(Cl)nc21,18.3 µM (inactive),16.6 µM (inactive),17.9 µM (inactive),0.0168 µM (active),2.17 µM (inactive),2.19 µM (inactive),1.79 µM (inactive),15.2 µM (inactive),20.6 µM (inactive),21.8 µM (inactive),22.5 µM (inactive),12.1 µM (inactive),17.2 µM (inactive),3.61 µM (inactive),31.6 µM (inactive),15 µM (inactive),17.2 µM (inactive),4.85 µM (inactive),5.4 µM (inactive),7.64 µM (inactive)
CC(C)(C)c1cc(C(=O)/C=C/c2cc[nH]n2)cc(C(C)(C)C)c1O,2.17 µM (inactive),3.02 µM (inactive),13.4 µM (inactive),2.23 µM (inactive),3.08 µM (inactive),1.85 µM (inactive),1.36 µM (inactive),1.91 µM (inactive),5.73 µM (inactive),2.75 µM (inactive),6.4 µM (inactive),2.4 µM (inactive),13.7 µM (inactive),3.85 µM (inactive),15.7 µM (inactive),3.87 µM (inactive),4.61 µM (inactive),1.11 µM (active),3.24 µM (inactive),1.76 µM (inactive)
CC1=Cc2ccc(C)cc2C(=O)C1=O,22.4 µM (inactive),23.7 µM (inactive),18.3 µM (inactive),1 µM (active),2.07 µM (inactive),4.66 µM (inactive),6.97 µM (inactive),20.6 µM (inactive),36.1 µM (inactive),4.79 µM (inactive),4.94 µM (inactive),8.67 µM (inactive),18.5 µM (inactive),6.28 µM (inactive),13.9 µM (inactive),22.2 µM (inactive),8.3 µM (inactive),1.82 µM (inactive),5.89 µM (inactive),1.64 µM (inactive)
CN1CCN(CCCCN2c3ccccc3Sc3cc(N=[N+]=[N-])ccc32)CC1,9.14 µM (inactive),1.94 µM (inactive),5.69 µM (inactive),2.26 µM (inactive),1.38 µM (inactive),1.62 µM (inactive),1.99 µM (inactive),1.91 µM (inactive),5.93 µM (inactive),2.55 µM (inactive),2.88 µM (inactive),6.19 µM (inactive),2.18 µM (inactive),3.31 µM (inactive),8.49 µM (inactive),3.62 µM (inactive),3.39 µM (inactive),9.23 µM (inactive),1.99 µM (inactive),0.586 µM (active)
CC(C)OC(=O)c1ccc(NCC2=CC(=O)C=CC2=O)cc1Cl,16.3 µM (inactive),31.9 µM (inactive),15.4 µM (inactive),0.904 µM (active),2.73 µM (inactive),10.5 µM (inactive),14.9 µM (inactive),16.4 µM (inactive),25.7 µM (inactive),10.4 µM (inactive),12.7 µM (inactive),12.1 µM (inactive),17.8 µM (inactive),12 µM (inactive),31.4 µM (inactive),6.11 µM (inactive),15.8 µM (inactive),2.3 µM (inactive),16.1 µM (inactive),3.29 µM (inactive)
NNc1nncn1N,> 100 µM (inactive),> 100 µM (inactive),> 100 µM (inactive),5.71 µM (inactive),> 76 µM (inactive),> 90.4 µM (inactive),> 100 µM (inactive),> 100 µM (inactive),> 100 µM (inactive),> 49.7 µM (inactive),38.1 µM (inactive),> 100 µM (inactive),> 100 µM (inactive),> 53.8 µM (inactive),> 100 µM (inactive),> 100 µM (inactive),> 100 µM (inactive),63 µM (inactive),> 100 µM (inactive),84.1 µM (inactive)
NNC(=O)CC(=O)Nc1cccc(Cl)c1,> 100 µM (inactive),> 100 µM (inactive),> 100 µM (inactive),> 100 µM (inactive),> 100 µM (inactive),> 100 µM (inactive),> 100 µM (inactive),> 100 µM (inactive),> 100 µM (inactive),> 100 µM (inactive),> 100 µM (inactive),> 100 µM (inactive),> 100 µM (inactive),> 100 µM (inactive),> 100 µM (inactive),> 100 µM (inactive),> 100 µM (inactive),> 100 µM (inactive),25.3 µM (inactive),> 100 µM (inactive)
CCOC(=O)C(=O)/C(=C/N1C(=O)CC(=O)NC1=S)C(=O)OCC,83.6 µM (inactive),> 100 µM (inactive),> 100 µM (inactive),> 100 µM (inactive),> 100 µM (inactive),> 100 µM (inactive),> 100 µM (inactive),> 100 µM (inactive),> 100 µM (inactive),0.719 µM (active),> 100 µM (inactive),> 100 µM (inactive),> 100 µM (inactive),> 100 µM (inactive),> 100 µM (inactive),> 100 µM (inactive),10.3 µM (inactive),> 100 µM (inactive),> 100 µM (inactive),26.8 µM (inactive)
CC(C)NCCCNc1c2ccccc2nc2cccc([N+](=O)[O-])c12,0.0164 µM (active),0.00358 µM (active),0.0177 µM (active),0.013 µM (active),0.00262 µM (active),0.0101 µM (active),< 0.001 µM (active),0.0132 µM (active),0.0219 µM (active),0.00834 µM (active),0.00438 µM (active),0.00757 µM (active),0.00746 µM (active),0.0484 µM (active),0.0566 µM (active),0.0499 µM (active),0.0308 µM (active),0.00851 µM (active),0.0445 µM (active),0.123 µM (active)
